Data reported in ChEMBL document CHEMBL1201862, “PubChem BioAssay data set” (2004).
Activity calls are given as the source filed them. Cut-off read from the data, not from the text of the source: actives have a measured IC50 and inactives only a lower limit.

Target: Envelope glycoprotein gp160 (Human immunodeficiency virus 1, UniProt Q6QLK5)
Assay: inhibitors of HIV fusion peptide binding, primary screen, biochemical, uHTS, fluorescence dequenching (AID 1986)

Sequence of Envelope glycoprotein gp160 (Q6QLK5 whole entry, the tested form may be a part): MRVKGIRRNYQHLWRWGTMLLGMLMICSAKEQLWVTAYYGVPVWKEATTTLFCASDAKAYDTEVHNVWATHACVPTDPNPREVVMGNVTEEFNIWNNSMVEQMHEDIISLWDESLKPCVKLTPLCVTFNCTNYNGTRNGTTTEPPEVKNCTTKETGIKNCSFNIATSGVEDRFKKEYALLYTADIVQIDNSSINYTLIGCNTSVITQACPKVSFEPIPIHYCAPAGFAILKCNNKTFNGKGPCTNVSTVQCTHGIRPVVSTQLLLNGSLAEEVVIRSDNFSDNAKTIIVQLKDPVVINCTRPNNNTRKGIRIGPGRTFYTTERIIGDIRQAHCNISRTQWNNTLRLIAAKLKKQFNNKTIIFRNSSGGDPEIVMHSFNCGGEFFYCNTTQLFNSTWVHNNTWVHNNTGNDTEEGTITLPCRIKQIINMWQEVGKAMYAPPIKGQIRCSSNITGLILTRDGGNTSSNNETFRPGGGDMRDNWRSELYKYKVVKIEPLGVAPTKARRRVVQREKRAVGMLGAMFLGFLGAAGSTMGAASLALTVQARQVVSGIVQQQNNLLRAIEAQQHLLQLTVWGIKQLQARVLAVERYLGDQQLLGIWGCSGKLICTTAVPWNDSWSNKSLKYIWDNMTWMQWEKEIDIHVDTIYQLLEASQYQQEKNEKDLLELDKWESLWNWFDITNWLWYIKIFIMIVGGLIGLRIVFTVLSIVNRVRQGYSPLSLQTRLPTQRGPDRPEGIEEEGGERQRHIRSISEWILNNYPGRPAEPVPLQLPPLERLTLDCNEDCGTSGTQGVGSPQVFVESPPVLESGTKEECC

**Q.** For CCOC(=O)c1sc2nc3c(SCCC(=O)O)cc(C(=O)c4cc(OC)ccc4O)cn3c(=O)c2c1C, which IC50 is on record?
**A.** 16 µM (active)
